Experimental data from publication PMC8304761, “Development of an Androgen Receptor Inhibitor Targeting the N-Terminal Domain of Androgen Receptor for Treatment of Castration Resistant Prostate Cancer” (Cancers, 2021).
pIC50: −log10 of the molar value. Where two headings read alike, the source gives them in different places.

Legend:
[1] = tested on: prostate specific antigen (PSA); test: Secreted PSA levels in LNCaP cells; format: cell-based; conditions: Homo sapiens, LNCaP; Table 1; read-out: PSA IC50
Source text: Next, we tested the activity of VPC-220010 against full length AR using an AR-eGFP transcription assay in LNCaP cells. […] To further validate VPC-220010 as an AR inhibitor, we evaluated its ability to reduce the production of endogenous prostate specific antigen (PSA) in PCa cell lines. PSA is an AR-regulated serine protease and is widely used as a biomarker for PCa.

[2] = Microsomal stability; format: in vitro ADME, human
Source text: However, further medicinal chemistry optimization is needed to make this scaffold stable enough to proceed to potential preclinical studies. […] Study of VPC-220057 scaffold could lead to a VPC-220010- and VPC-220057-derivative that combines their best potency and stability. The corresponding efforts are under way.

[3] = biological target: T1, ARV7 (Homo sapiens, UniProt P10275)
T1 sequence (P10275 1-644 isoform P10275-3): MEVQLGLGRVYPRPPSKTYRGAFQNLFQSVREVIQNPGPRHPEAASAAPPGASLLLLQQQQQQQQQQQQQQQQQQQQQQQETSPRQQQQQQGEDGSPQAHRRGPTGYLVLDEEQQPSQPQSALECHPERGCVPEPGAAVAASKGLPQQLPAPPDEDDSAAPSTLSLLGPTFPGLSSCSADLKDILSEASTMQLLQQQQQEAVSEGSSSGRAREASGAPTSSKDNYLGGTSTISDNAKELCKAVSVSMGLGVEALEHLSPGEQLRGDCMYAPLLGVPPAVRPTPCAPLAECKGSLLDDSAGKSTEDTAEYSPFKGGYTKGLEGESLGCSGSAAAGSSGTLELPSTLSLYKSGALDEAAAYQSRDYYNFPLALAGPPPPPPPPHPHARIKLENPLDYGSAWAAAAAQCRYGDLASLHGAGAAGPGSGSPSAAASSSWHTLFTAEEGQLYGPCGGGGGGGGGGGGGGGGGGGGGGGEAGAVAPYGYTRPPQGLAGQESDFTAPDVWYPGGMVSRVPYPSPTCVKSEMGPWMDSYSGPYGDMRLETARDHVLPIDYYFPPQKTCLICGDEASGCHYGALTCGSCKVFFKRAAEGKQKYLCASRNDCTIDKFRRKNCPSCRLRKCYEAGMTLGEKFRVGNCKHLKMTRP
Source text: The newly synthesized compounds were screened initially for their ability to inhibit ARV7 transcriptional activity using a cell based ARV7 transcriptional assay.

[4] = biological target: T2, full-length AR (Homo sapiens, UniProt P10275, T878A); test: AR fluorescent (eGFP) reporter assay in LN-ARR2PB-eGFP LNCaP cells; format: cell-based
T2 construct: against full length AR using an AR-eGFP transcription assay in LNCaP cells; endogenous in cells; host or cells: LNCaP (LN-ARR2PB-eGFP reporter line for A1; parental LNCaP for RIME)
T2 sequence (P10275 1-920 T878A): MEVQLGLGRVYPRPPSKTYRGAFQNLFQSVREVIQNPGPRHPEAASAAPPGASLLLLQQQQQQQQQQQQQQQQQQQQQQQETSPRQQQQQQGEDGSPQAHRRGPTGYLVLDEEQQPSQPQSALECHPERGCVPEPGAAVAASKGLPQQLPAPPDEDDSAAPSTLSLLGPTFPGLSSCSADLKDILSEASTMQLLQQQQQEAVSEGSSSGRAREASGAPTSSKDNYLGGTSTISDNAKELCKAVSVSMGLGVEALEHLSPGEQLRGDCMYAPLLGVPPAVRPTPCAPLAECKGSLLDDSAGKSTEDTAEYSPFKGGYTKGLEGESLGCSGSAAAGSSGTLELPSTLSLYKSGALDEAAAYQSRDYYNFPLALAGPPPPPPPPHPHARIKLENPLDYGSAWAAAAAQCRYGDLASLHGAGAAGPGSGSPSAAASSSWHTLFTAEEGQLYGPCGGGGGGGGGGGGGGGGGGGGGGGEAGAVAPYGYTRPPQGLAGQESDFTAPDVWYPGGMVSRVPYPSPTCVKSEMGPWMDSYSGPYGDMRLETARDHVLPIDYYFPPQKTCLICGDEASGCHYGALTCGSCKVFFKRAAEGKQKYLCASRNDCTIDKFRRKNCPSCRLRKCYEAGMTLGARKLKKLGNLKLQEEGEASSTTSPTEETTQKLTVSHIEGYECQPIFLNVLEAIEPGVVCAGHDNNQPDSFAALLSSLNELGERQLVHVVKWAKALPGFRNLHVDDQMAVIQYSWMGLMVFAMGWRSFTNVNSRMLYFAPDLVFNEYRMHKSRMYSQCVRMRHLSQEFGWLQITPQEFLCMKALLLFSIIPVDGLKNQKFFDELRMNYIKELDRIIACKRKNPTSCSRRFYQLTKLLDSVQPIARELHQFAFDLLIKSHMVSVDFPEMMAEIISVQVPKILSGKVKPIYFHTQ
Experimental: AR fluorescent reporter assay: Stably transfected eGFP-expressing LNCaP human prostate cancer cells (LN-ARR2PB-eGFP) containing an androgen-responsive probasin-derived promoter (ARR2PB) were assayed, as previously described.
Next, we tested the activity of VPC-220010 against full length AR using an AR-eGFP transcription assay in LNCaP cells. […] PSA is an AR-regulated serine protease and is widely used as a biomarker for PCa.

[5] = tested on: LNCaP cells; test: Proliferation assay (PrestoBlue), LNCaP; format: cell-based; conditions: Homo sapiens, 72 h, R1881, Figure 2C, read-out: IC50, viability of LNCaP cells
Experimental: (§1) Proliferation assay: LNCaP, 22Rv1 and PC3 cells were plated at 3000 cells per well in RPMI1640 containing 5% CSS in a 96-well plate, treated with 0.1 nm R1881 (a synthetic androgen) and test compounds (0–25 μM) for 72 h. Cell proliferation was determined using the PrestoBlue^TM cell proliferation assay following incubation with the compound […] over 72 h. In brief, 30 μL of the PrestoBlue^TM reagent was added to cells in each well of the 96-well plate containing 200 μL of media and incubated for 60 min at 37 °C in 5% CO2. The production of […]. Fluorescence measurement was read on a TECAN F200.
(§2) We then evaluated the effect of VPC-220010 on the proliferation of androgen-dependent LNCaP and ARV7-dependent 22Rv1 cells.

[6] = tested on: 22Rv1 cells; test: Proliferation assay (PrestoBlue), 22Rv1; format: cell-based; conditions: Homo sapiens, 72 h, Figure 2D, read-out: IC50, viability of 22Rv1 cells
Experimental: as §1, §2

[7] = biological target: T3, progesterone receptor (PR) (Homo sapiens, UniProt P06401); test: Luciferase reporter transcription assay in PC3 cells, PR; conditions: progesterone stimulated; 20 uM; Figure 4
T3 sequence (P06401 1-933): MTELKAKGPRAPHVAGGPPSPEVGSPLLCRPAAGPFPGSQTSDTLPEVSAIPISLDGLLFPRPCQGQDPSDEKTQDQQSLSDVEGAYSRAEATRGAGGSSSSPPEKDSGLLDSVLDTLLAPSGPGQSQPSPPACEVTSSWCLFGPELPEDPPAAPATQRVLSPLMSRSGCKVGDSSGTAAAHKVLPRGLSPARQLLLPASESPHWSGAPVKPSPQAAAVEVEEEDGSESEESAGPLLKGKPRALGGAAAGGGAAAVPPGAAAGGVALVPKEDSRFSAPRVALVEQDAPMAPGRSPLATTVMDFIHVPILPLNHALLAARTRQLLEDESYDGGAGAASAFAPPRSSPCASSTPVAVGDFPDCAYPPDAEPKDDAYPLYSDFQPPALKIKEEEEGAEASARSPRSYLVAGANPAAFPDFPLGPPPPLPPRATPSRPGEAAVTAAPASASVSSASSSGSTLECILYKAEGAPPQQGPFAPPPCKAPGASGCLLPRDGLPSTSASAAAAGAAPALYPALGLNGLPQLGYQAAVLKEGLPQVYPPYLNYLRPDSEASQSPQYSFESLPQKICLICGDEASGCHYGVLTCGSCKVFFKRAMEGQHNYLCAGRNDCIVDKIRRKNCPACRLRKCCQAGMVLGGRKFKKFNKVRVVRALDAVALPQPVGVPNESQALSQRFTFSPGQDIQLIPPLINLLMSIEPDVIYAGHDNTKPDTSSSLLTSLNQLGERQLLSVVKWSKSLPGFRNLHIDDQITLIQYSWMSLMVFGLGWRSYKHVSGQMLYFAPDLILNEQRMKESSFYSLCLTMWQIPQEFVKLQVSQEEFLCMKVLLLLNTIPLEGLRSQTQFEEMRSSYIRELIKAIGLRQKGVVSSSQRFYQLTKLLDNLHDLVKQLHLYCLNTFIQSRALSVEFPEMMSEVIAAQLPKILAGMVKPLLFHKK

[8] = biological target: T4, glucocorticoid receptor (GR) (Homo sapiens, UniProt P04150); test: Luciferase reporter transcription assay in PC3 cells, GR; conditions: dexamethasone stimulated; 20 uM; Figure 4
T4 sequence (P04150 1-777): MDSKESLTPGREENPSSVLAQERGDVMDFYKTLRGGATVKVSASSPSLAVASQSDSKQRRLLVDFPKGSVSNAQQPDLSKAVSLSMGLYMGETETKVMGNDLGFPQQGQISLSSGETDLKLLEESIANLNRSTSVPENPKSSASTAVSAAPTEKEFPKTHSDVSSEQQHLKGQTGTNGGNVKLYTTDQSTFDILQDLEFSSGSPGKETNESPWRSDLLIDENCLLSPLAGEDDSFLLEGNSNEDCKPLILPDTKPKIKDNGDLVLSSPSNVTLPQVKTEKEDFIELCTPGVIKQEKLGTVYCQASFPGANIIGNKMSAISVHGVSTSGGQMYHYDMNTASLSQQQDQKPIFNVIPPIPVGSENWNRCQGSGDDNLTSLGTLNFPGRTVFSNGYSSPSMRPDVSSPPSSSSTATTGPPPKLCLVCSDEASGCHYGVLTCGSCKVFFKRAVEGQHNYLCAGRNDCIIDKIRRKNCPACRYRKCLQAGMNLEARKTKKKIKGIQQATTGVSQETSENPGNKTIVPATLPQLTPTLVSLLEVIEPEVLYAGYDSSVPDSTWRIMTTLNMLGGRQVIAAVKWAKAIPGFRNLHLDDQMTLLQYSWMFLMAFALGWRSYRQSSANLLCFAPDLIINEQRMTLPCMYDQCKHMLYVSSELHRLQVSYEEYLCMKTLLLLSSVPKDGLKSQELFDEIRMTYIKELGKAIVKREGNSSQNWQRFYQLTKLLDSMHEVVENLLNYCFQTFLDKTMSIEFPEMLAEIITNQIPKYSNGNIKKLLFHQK

| SMILES | pIC50 [1] | half-life ([2]; human, microsomes) [min] | pIC50 [3] | activity against ARV7 (in words) [3] | pIC50 ([4]; Table 1, read-out: eGFP IC50) | also measured |
| --- | --- | --- | --- | --- | --- | --- |
| O[C@@H](CCl)COc1cccc2c(OC[C@@H](O)CCl)cccc12 [RR-220010] | 6.15 | 11 | 5.30 | no difference in potency | 6.15 | – |
| O[C@H](CCl)COc1cccc2c(OC[C@H](O)CCl)cccc12 [SS-220010] | 6.22 | 12 | 5.22 | no difference in potency | 6.15 | – |
| OC(CCl)CNc1cccc2c(NCC(O)CCl)cccc12 (stereo not drawn) [VPC-2055] | – | – | 5.06 | active against this truncated variant | – | pIC50 ([4]; LNCaP cells, read-out: IC50, full length AR, AR-eGFP transcription assay): 6.00; pIC50 [5]: 4.93; pIC50 [6]: < 4.30 |
| OC(CCl)COc1c(Br)ccc2c(OCC(O)CCl)c(Br)ccc12 (stereo not drawn) [VPC-220027] | 5.40 | – | 5.40 | – | 5.52 | – |
| OC(CCl)COc1ccc(Br)c2c(OCC(O)CCl)ccc(Br)c12 (stereo not drawn) [VPC-220028] | 6.40 | – | 5.52 | – | 6.40 | – |
| O=[N+]([O-])c1ccc2c(OCC(O)CCl)cccc2c1OCC(O)CCl (stereo not drawn) [VPC-220054] | 5.30 | – | 5.52 | – | 5.30 | – |
| O=[N+]([O-])c1ccc(OCC(O)CCl)c2c([N+](=O)[O-])ccc(OCC(O)CCl)c12 (stereo not drawn) [VPC-220057] | 5.10 | – | 5.10 | – | 5.00 | half-life ([2]; microsomal stability, human microsomes, read-out: T1/2): 462 min; fold less potent than VPC-220010 ([4]; Table 1): 10 fold |
| OC(CCl)COc1ccc(Br)c2c(OCC(O)CCl)cccc12 (stereo not drawn) [VPC-220062] | 6.30 | 36 | 5.52 | – | 6.30 | – |
| OC(CCl)COc1ccc2cc(OCC(O)CCl)ccc2c1 (stereo not drawn) [VPC-220075] | 6.30 | 18 | 4.92 | – | 6.30 | – |
| CC#C[C@]1(O)CC[C@H]2[C@@H]3CCC4=CC(=O)CCC4=C3[C@@H](c3ccc(N(C)C)cc3)C[C@@]21C [mifepristone] | – | – | – | – | – | PR transcriptional reporter activity [7]: inhibited; GR transcriptional reporter activity [8]: inhibited |
